Assay results: patent US8389764B2, “Urea and sulfamide derivatives as inhibitors of TAFIa” (Sanofi, priority 2006, dated 2013)
Numbered stars: 1 amine (or outer) side, 2 acyl side, 3 side chain; on linkers, the order of the positions; unused ones are H or OH. Square brackets hold non-standard residues; d marks the D form. Peptide text beside a SMILES is read from it. * marks the point of attachment. ξ: configuration not given here. dCha = N[C@H](CC1CCCCC1)C(=O)O; Cbz = O=C(OCc1ccccc1)*; Aib = CC(C)(N)C(=O)O; CO = O=C([*:1])[*:2]; ξV = CC(C)C(N)C(=O)O

Target: T1, TAFIa (Homo sapiens, UniProt Q96IY4)
T1 construct: purchased American Diagnostica 874TAFIA
T1 sequence (Q96IY4 115-423): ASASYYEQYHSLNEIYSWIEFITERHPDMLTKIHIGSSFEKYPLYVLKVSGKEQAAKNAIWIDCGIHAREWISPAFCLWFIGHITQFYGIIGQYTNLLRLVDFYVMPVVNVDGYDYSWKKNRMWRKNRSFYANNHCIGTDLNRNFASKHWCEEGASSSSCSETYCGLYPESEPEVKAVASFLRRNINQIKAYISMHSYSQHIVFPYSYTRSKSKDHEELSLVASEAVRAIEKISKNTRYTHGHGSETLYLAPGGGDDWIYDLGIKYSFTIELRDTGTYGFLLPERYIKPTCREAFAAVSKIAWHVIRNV
Test: TAFIa inhibition, Actichrome plasma TAFI activity kit (American Diagnostica)
Assay type: biochemical
Conditions: 15 min preincubation at room temperature, read at 420 nm, duplicate determination of serial dilutions
Protocol: The enzymic reaction was started by adding 10 μl of TAFIa developer (prediluted 1:2 with assay buffer).
The IC50 values were calculated from the averaged values (duplicate determination) of serial dilutions of the substance with the aid of the Softmax Pro software (version 4.8; Molecular Devices).

CC1(C)[C@@H]2CC[C@@]1(C)[C@@H](NC(=O)[C@@H](CC1CCCCC1)NC(=O)N[C@@H](CCCN)C(=O)O)C2 [Example 124]
IC50: 0.018 µM

CCOC(=O)[C@@H](NC(=O)[C@@H](CC1CCCCC1)NC(=O)N[C@@H](CCCCN)C(=O)O)C(C)C [Example 49] ({Lys-CO}-[dCha]-Val-OEt)
IC50: 0.106 µM

CC(C)[C@H](NC(=O)[C@@H](CCCCNC(=O)OCc1ccccc1)NC(=O)N[C@@H](CCCCN)C(=O)O)C(=O)NC1C[C@@H]2CC[C@H]1C2 (stereo partly drawn) [Example 115]
IC50: 0.239 µM

CC(C)CNC(=O)[C@@H](NC(=O)[C@H](CC1CCCCC1)NS(=O)(=O)N[C@@H](CCCCN)C(=O)O)C(C)C [Example 169]
IC50: 0.77 µM

CC(C)(C)C1CCC(NC(=O)[C@@H](CC2CCCCC2)NC(=O)N[C@@H](CCCCN)C(=O)O)CC1 (stereo partly drawn) [Example 86]
IC50: 0.06 µM

CC1(C)[C@@H]2CC[C@@]1(C)[C@@H](NC(=O)[C@@H](CC1CCCCC1)NC(=O)N[C@@H](CSCCN)C(=O)O)C2 [Example 142a]
IC50: 0.0007 µM

CC1(C)[C@@H]2CC[C@@]1(C)[C@@H](NC(=O)[C@@H](CC1CCCCC1)NC(=O)N[C@@H](CS(=O)(=O)CCN)C(=O)O)C2 [Example 142b]
IC50: 0.006 µM

CCOC(=O)[C@@H](NC(=O)[C@@H](NC(=O)[C@@H](CCCCNC(=O)OCc1ccccc1)NC(=O)N[C@@H](CCCCN)C(=O)O)C(C)C)C(C)C [Example 118] ({Lys-CO}-[dK](Cbz)-Val-Val-OEt)
IC50: 0.267 µM

NCCCC[C@H](NC(=O)N[C@H](CC1CCCCC1)C(=O)NCC12CC3CC(CC(C3)C1)C2)C(=O)O [Example 78]
IC50: 0.305 µM

Cc1ccccc1CCNC(=O)[C@@H](CC1CCCCC1)NC(=O)N[C@@H](CCCCN)C(=O)O [Example 13]
IC50: 1.26 µM

CC1CCCC(NC(=O)[C@@H](CC2CCCCC2)NC(=O)N[C@@H](CCCCN)C(=O)O)C1C (stereo partly drawn) [Example 72]
IC50: 0.167 µM

CC1CCCCC1NC(=O)[C@@H](CCCCNC(=O)OCc1ccccc1)NC(=O)N[C@@H](CCCCN)C(=O)O (stereo partly drawn) [Example 42]
IC50: 0.839 µM

CC(C)CCNC(=O)[C@@H](CCCCNC(=O)OCc1ccccc1)NC(=O)N[C@@H](CCCCN)C(=O)O [Example 2]
IC50: 1.42 µM

C[C@@H]1C(CNC(=O)[C@@H](CC2CCCCC2)NC(=O)N[C@@H](CCCCN)C(=O)O)CC2C[C@@H]1C2(C)C (stereo partly drawn) [Example 84]
IC50: 0.654 µM

CC1(C)[C@@H]2CC[C@@]1(C)[C@@H](NC(=O)[C@@H](CC1CCCCC1)NC(=O)N[C@@H](Cc1ccc(N)nc1)C(=O)O)C2 [Example 93]
IC50: 1.5 µM

CCNC(=O)[C@@H](NC(=O)[C@@H](CC1CCCCC1)NC(=O)N[C@@H](CCCCN)C(=O)O)C(C)C [Example 10] ({Lys-CO}-[dCha]-Val-NHEt)
IC50: 0.979 µM

CC1(C)[C@@H]2CC[C@@]1(C)C(NC(=O)[C@H](NC(=O)N[C@@H](CCCCN)C(=O)O)C1CCCCC1)C2 (stereo partly drawn) [Example 98]
IC50: 1.04 µM

CC1(C)C2CCC1(C)[C@@H](NC(=O)[C@@H](CC1CCCCC1)NC(=O)N[C@@H](CCCCN)C(=O)O)C2 (stereo partly drawn) [Example 77]
IC50: 0.003 µM

CCC[C@@H](NC(=O)N[C@@H](CCCCN)C(=O)O)C(=O)N[C@H]1C[C@H]2CC[C@]1(C)C2(C)C [Example 103]
IC50: 0.015 µM

CC(C)[C@H](NC(=O)[C@@H](CCCCNC(=O)OCc1ccccc1)NC(=O)N[C@@H](CCCCN)C(=O)O)C(=O)NCc1ccc(Cl)cc1 [Example 129]
IC50: 0.608 µM

NCCCC[C@H](NC(=O)N[C@H](CC1CCCCC1)C(=O)NC1CCC2CCCCC2C1)C(=O)O (stereo partly drawn) [Example 92]
IC50: 0.16 µM

CC(C)(C)OC(=O)[C@H](CCCCN)NS(=O)(=O)N[C@@H](CC1CCCCC1)C(=O)N[C@@H]1C[C@H]2CC[C@]1(C)C2(C)C [Example 186]
IC50: 22.9 µM

CC(CNC(=O)[C@@H](CC1CCCCC1)NC(=O)N[C@@H](CCCCN)C(=O)O)c1ccccc1 (stereo partly drawn) [Example 12]
IC50: 1.26 µM

CC1(C)[C@@H]2CC[C@@]1(C)[C@@H](NC(=O)[C@@H](CC1CCCCC1)NC(=O)N[C@H](Cc1ccc(N)nc1)C(=O)O)C2 [Example 94]
IC50: 109 µM

Nc1ccc(CC(NC(=O)N[C@H](CC2CCCCC2)C(=O)NC2CC3CCC2C3)C(=O)O)cn1 (stereo partly drawn) [Example 88]
IC50: 0.393 µM

CC(C)CC(C)NC(=O)[C@@H](CC1CCCCC1)NC(=O)N[C@@H](CCCCN)C(=O)O (stereo partly drawn) [Example 75]
IC50: 0.653 µM

NCCCC[C@H](NC(=O)N[C@H](CC1CCCCC1)C(=O)NC1C2CC3CC(C2)CC1C3)C(=O)O (stereo partly drawn) [Example 74]
IC50: 0.019 µM

CCOC(=O)[C@H](CC(C)C)NC(=O)[C@@H](CCCCNC(=O)OCc1ccccc1)NC(=O)N[C@@H](CCCCN)C(=O)O [Example 32] ({Lys-CO}-[dK](Cbz)-Leu-OEt)
IC50: 0.753 µM

CC1(C)[C@@H]2CC[C@@]1(C)C(NC(=O)[C@@H](Cc1ccccc1)NC(=O)N[C@@H](CCCCN)C(=O)O)C2 (stereo partly drawn) [Example 96]
IC50: 0.015 µM

C[C@H]1CC[C@H](NC(=O)[C@@H](CC2CCCCC2)NC(=O)N[C@@H](CCCCN)C(=O)O)CC1 [Example 31]
IC50: 0.076 µM

COC(=O)[C@H](Cc1c[nH]c2ccccc12)NC(=O)[C@@H](NC(=O)[C@@H](CCCCNC(=O)OCc1ccccc1)NC(=O)N[C@@H](CCCCN)C(=O)O)C(C)C [Example 134] ({Lys-CO}-[dK](Cbz)-Val-Trp-OMe)
IC50: 0.532 µM

CC1CCCC(NC(=O)[C@@H](NC(=O)[C@@H](CCCCNC(=O)OCc2ccccc2)NC(=O)N[C@@H](CCCCN)C(=O)O)C(C)C)C1 (stereo partly drawn) [Example 120]
IC50: 0.615 µM

NCCCC[C@H](NC(=O)N[C@H](CCCCNC(=O)OCc1ccccc1)C(=O)NC1C[C@@H]2CC[C@H]1C2)C(=O)O (stereo partly drawn) [Example 43]
IC50: 0.046 µM

CC[C@H](C)[C@H](NC(=O)[C@@H](CCCCNC(=O)OCc1ccccc1)NC(=O)N[C@@H](CCCCN)C(=O)O)C(=O)OC [Example 37]
IC50: 0.537 µM

CC(CNC(=O)[C@@H](CCCCNC(=O)OCc1ccccc1)NC(=O)N[C@@H](CCCCN)C(=O)O)c1ccccc1 (stereo partly drawn) [Example 34]
IC50: 1.08 µM

CC(C)CNC(=O)[C@@H](CC1CCCCC1)NC(=O)N[C@@H](CCCCN)C(=O)O [Example 76]
IC50: 0.845 µM

CC(C)C[C@@H](NC(=O)N[C@@H](CCCCN)C(=O)O)C(=O)NC1C[C@H]2CC[C@]1(C)C2(C)C (stereo partly drawn) [Example 99]
IC50: 0.057 µM

CCOC(=O)[C@@H]1CCCC[C@@H]1NC(=O)[C@@H](CCCCNC(=O)OCc1ccccc1)NC(=O)N[C@@H](CCCCN)C(=O)O [Example 33]
IC50: 0.19 µM

CC1(C)C2CC[C@@]1(C)[C@@H](NC(=O)[C@@H](CC1CCCCC1)NC(=O)N[C@@H](CCONC(=N)N)C(=O)O)C2 [Example 107]
IC50: 1.1 µM

CC(C)[C@H](NC(=O)[C@@H](CCCCNC(=O)OCc1ccccc1)NC(=O)N[C@@H](CCCCN)C(=O)O)C(=O)NC(C)C(C)(C)C (stereo partly drawn) [Example 126]
IC50: 0.204 µM

NCCCC[C@H](NC(=O)N[C@H](CC1CCCCC1)C(=O)NC1CCc2ccccc2C1)C(=O)O (stereo partly drawn) [Example 73]
IC50: 0.047 µM

NCCCC[C@H](NC(=O)N[C@H](CC1CCCCC1)C(=O)N[C@@H]1CC1c1ccccc1)C(=O)O (stereo partly drawn) [Example 64]
IC50: 0.757 µM

CC1(C)[C@@H]2CC[C@@]1(C)[C@@H](NC(=O)[C@@H](CC1CCC1)NC(=O)N[C@@H](CCCCN)C(=O)O)C2 [Example 109]
IC50: 0.009 µM

NCCCC[C@H](NC(=O)N[C@H](CC1CCCCC1)C(=O)N[C@H]1CCc2ccccc2C1)C(=O)O [Example 85]
IC50: 0.039 µM

CC(C)[C@H](NC(=O)[C@@H](NC(=O)[C@@H](CC1CCCCC1)NC(=O)N[C@@H](CCCCN)C(=O)O)C(C)C)C(N)=O [Example 137] ({Lys-CO}-[dCha]-Val-Val-NH2)
IC50: 0.14 µM

CC(C)[C@H](NC(=O)[C@@H](CCCCNC(=O)OCc1ccccc1)NC(=O)N[C@@H](CCCCN)C(=O)O)C(=O)NCCCc1ccccc1 [Example 113]
IC50: 0.747 µM

COC(=O)[C@@H](NC(=O)[C@@H](NC(=O)[C@H](Cc1ccccc1)NS(=O)(=O)N[C@@H](CCCCN)C(=O)O)C(C)C)C(C)C [Example 143, (S)-6-Amino-2-(3-{(S)-1-[(S)-1-((S)-1-methoxycarbonyl-2-methyl-propylcarbamoyl)-2-methyl-propylcarbamoyl]-2-phenyl-ethyl}-sulfamidyl)-hexanoic acid]
IC50: 9.76 µM

CC(C)[C@H](NC(=O)[C@@H](CCCCNC(=O)OCc1ccccc1)NC(=O)N[C@@H](CCCCN)C(=O)O)C(=O)N[C@H](C)c1ccccc1 [Example 122]
IC50: 0.525 µM

CC1CCCC(NC(=O)[C@@H](CC2CCCCC2)NC(=O)N[C@@H](CCCCN)C(=O)O)C1 (stereo partly drawn) [Example 41]
IC50: 0.09 µM

COC(=O)C(C)(C)NC(=O)[C@@H](CCCCNC(=O)OCc1ccccc1)NC(=O)N[C@@H](CCCCN)C(=O)O [Example 25] ({Lys-CO}-[dK](Cbz)-[Aib]-OMe)
IC50: 0.463 µM

CC(C)C(NC(=O)C(NC(=O)[C@@H](CCCCNC(=O)OCc1ccccc1)NC(=O)N[C@@H](CCCNC(=N)N)C(=O)O)C(C)C)C(N)=O (stereo partly drawn) [Example 139] ({Arg-CO}-[dK](Cbz)-[ξV]-[ξV]-NH2)
IC50: 0.376 µM

CCOC(=O)[C@@H](NC(=O)[C@@H](CCCCNC(=O)OCc1ccccc1)NC(=O)N[C@@H](CCCCN)C(=O)O)C(C)C [Example 38] ({Lys-CO}-[dK](Cbz)-Val-OEt)
IC50: 0.297 µM

CC[C@@H](C)[C@H](NC(=O)[C@@H](CCCCNC(=O)OCc1ccccc1)NC(=O)N[C@@H](CCCCN)C(=O)O)C(N)=O [Example 142]
IC50: 10.6 µM

Cc1cccc(CNC(=O)[C@@H](CC2CCCCC2)NC(=O)N[C@@H](CCCCN)C(=O)O)c1C [Example 26]
IC50: 0.487 µM
